Tested on: corn fall armyworm (FAW) (Spodoptera frugiperda)
Assay: Field trials, insecticide plus ortho silicic acid against corn fall armyworm
Format: in vivo
Set-up: concentration or dose not given beside the values

Molecule	Percent Control (%) (A01 = 1 day after first spray)	Percent Control (%) (B07 = 7 days after 2nd spray)	Percent Control (%) (B10, after 2nd application)	Percent Control (%) (B21, after 2nd application)
Orthosilicic acid [OSA]	32.4	58.6	60.6	59
CNC(=O)c1cc(Cl)cc(C)c1NC(=O)c1cc(Br)nn1-c1ncccc1Cl [CTPR, Chlorantraniliprole]	67.6	86.8	88.9	87
O=C(NC(=O)c1c(F)cccc1F)Nc1ccc(OC(F)(F)C(F)OC(F)(F)F)c(Cl)c1 (stereo not drawn) [Novaluron]	60.5	88.8	88.9	84.7
